According to PubChem BioAssay AID1963975 (Molecular Pharmacology Branch, DTP, NCI, 2024):

Tested on: 624824-186-R-J2-PDC multicell spheroids, viability
Assay: Anticancer human tumor 624824-186-R-J2-PDC patient-derived colon adenocarcinoma cell line growth inhibition [PI3K]
Settings: for IC50: curve of first compound; for viability, T/C: stronger effect = lower value
Description: Combinatorial screen of targeted agents with the PI3K inhibitors inavolisib, alpelisib, duvelisib, and copanlisib in multi-cell type tumor spheroids
A high-throughput screen of multi-cell type tumor spheroids was designed to identify active combinations of targeted small molecules and PI3K pathway inhibitors. Complex spheroids include a stromal component modeled by human endothelial cells (HUVEC) and fibroblasts modeled by human mesenchymal stem cells (MSCs). The concentration ranges selected for each drug and investigational agent were based upon clinically achievable concentrations if the clinical Cmax of the agent was known.
Compounds. The drugs and investigational agents: inavolisib (NSC800729), alpelisib (NSC765974), duvelisib (NSC772469), copanlisib (NSC816437), ipatasertib (NSC767898), afuresertib (NSC778305), talazoparib (NSC767125), sapanisertib (NSC764658), selumetinib (NSC741078), tovorafenib (DAY101, NSC766906), vemurafenib (NSC761431), ravoxertinib (NSC781343), sotorasib (NSC818433), MRTX1133 (NSC 836407), abemaciclib (NSC 768073), palbociclib (NSC758247), venetoclax (NSC 766270), SY5609 (NSC837396), enzalutamide (NSC755605), and darolutamide (NSC825331), were obtained from the National Cancer Institute (NCI) Developmental Therapeutics Program Chemical Repository. The FDA-approved anticancer drug set is available from the NCI Developmental Therapeutics Program. […] The stock solutions were prepared in dimethyl sulfoxide (DMSO, Sigma-Aldrich, St. Louis, MO, cat. D2650) at 800-fold the tested concentration and stored at -70 degrees C prior to their use. All drugs and investigational agents were tested over a range starting from a high concentration at or near the clinical Cmax and decreasing in half-log increments. If the clinical Cmax for an agent had not been determined, the highest concentration tested was 10 microM.
Cell Culture. All cells were maintained in an incubator at 37 degrees C and 5% CO2 with 95% humidity. The PDC lines were cultured according to standard operating procedures established by the NCI PDMR (https://pdmr.cancer.gov/sops/default.htm). All PDCs were thawed and cultured in Matrigel-coated flasks prepared with a working solution of 1X Ham's F-12 nutrient mix, without supplementation (Invitrogen, Waltham, MA, cat. 11765054), 100 U/mL penicillin-streptomycin (Invitrogen, cat. 15140122), and 2.5% Matrigel (Corning Inc., Corning, NY, cat. 354248) for the first three passages. The 354836-022-R-J1-PDC, 475296-252-R-J1-PDC, and 997726-040-R-J2-PDC lines were cultured in 6A media, which includes advanced DMEM/F-12 (Thermo Fisher Scientific, cat. 12634028), 10 mM HEPES (Thermo Fisher Scientific, cat. 15630080), 1X GlutaMAX supplement (Thermo Fisher Scientific, cat. 35050061), 0.1 mg/mL primocin (InvivoGen, San Diego, CA, cat. ant-pm-2), 10% defined fetal bovine serum, heat inactivated (HyClone Laboratories Inc., Logan, UT, cat. SH30070.03HI), 50% L-WRN conditioned media (ATCC, cat. CRL-3276), 1.25 mM N-Acetyl-L-cysteine (Sigma-Aldrich, cat. A9165), 10 mM nicotinamide (Sigma-Aldrich, cat. N0636), 1X B-27 supplement (Thermo Fisher Scientific, cat. 17504044), 1X N-2 supplement (Thermo Fisher Scientific, cat. 17502048), and 10 microM Y-27632 dihydrochloride (Tocris Bioscience, Bristol, United Kingdom, cat. 1254). The 624824-186-R-J2-PDC line was cultured in 6C/Colon 1B media, which includes all 6A media components plus 50 ng/mL human EGF recombinant protein (Thermo Fisher Scientific, cat. PHG0311). […]
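Also: spheroids exposed to agents for 7 days before viability read.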
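For viability, T/C in this document: 100% = DMSO vehicle treated spheroids.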

Question: `Cn1cnc2c(F)c(Nc3ccc(Br)cc3Cl)c(C(=O)NOCCO)cc21` + CC(Nc1ccc2c(c1)OCCn1cc(N3C(=O)OCC3C(F)F)nc1-2)C(N)=O was tested. Which IC50 (second compound 0.00316 µM) did it give?
Answer: The IC50 was > 3000 nM.

Question: And the IC50 (second compound 0.01 µM)?
Answer: Its IC50 is > 3000 nM.

Question: And the IC50 (second compound 0.0316 µM)?
Answer: The IC50 was > 3000 nM.

Question: What about the IC50 (second compound 0.1 µM) of the same compound?
Answer: The IC50 was > 3000 nM.

Question: What about the IC50 (second compound 0.316 µM) of the same compound?
Answer: Its IC50 is 2930 nM.

Question: And the IC50 (second compound 1 µM)?
Answer: The IC50 was 669 nM.

Question: What about the viability, T/C (second compound 0.00316 µM, first compound 0.00949 µM) of the same compound?
Answer: Its viability, T/C is 89.3%.

Question: What about the viability, T/C (second compound 0.00316 µM, first compound 0.03 µM) of the same compound?
Answer: Its viability, T/C is 76.8%.

Question: And the viability, T/C (second compound 0.00316 µM, first compound 0.0949 µM)?
Answer: Its viability, T/C is 76%.

Question: What about the viability, T/C (second compound 0.00316 µM, first compound 0.3 µM) of the same compound?
Answer: Its viability, T/C is 74.8%.

Question: And the viability, T/C (second compound 0.00316 µM, first compound 0.949 µM)?
Answer: Its viability, T/C is 87.8%.

Question: What about the viability, T/C (second compound 0.00316 µM, first compound 3 µM) of the same compound?
Answer: The viability, T/C was 78.7%.

Question: And the viability, T/C (second compound 0.01 µM, first compound 0.00949 µM)?
Answer: Its viability, T/C is 87.2%.

Question: What about the viability, T/C (second compound 0.01 µM, first compound 0.03 µM) of the same compound?
Answer: Its viability, T/C is 71.2%.

Question: And the viability, T/C (second compound 0.01 µM, first compound 0.0949 µM)?
Answer: Its viability, T/C is 81.9%.

Question: And the viability, T/C (second compound 0.01 µM, first compound 0.3 µM)?
Answer: The viability, T/C was 70.9%.

Question: What about the viability, T/C (second compound 0.01 µM, first compound 0.949 µM) of the same compound?
Answer: The viability, T/C was 89.6%.

Question: And the viability, T/C (second compound 0.01 µM, first compound 3 µM)?
Answer: The viability, T/C was 81.8%.

Question: What about the viability, T/C (second compound 0.0316 µM, first compound 0.00949 µM) of the same compound?
Answer: Its viability, T/C is 72.1%.

Question: What about the viability, T/C (second compound 0.0316 µM, first compound 0.03 µM) of the same compound?
Answer: The viability, T/C was 66.2%.

Question: And the viability, T/C (second compound 0.0316 µM, first compound 0.0949 µM)?
Answer: Its viability, T/C is 75.7%.

Question: What about the viability, T/C (second compound 0.0316 µM, first compound 0.3 µM) of the same compound?
Answer: Its viability, T/C is 77.4%.

Question: And the viability, T/C (second compound 0.0316 µM, first compound 0.949 µM)?
Answer: Its viability, T/C is 85.8%.

Question: What about the viability, T/C (second compound 0.0316 µM, first compound 3 µM) of the same compound?
Answer: Its viability, T/C is 67.1%.

Question: What about the viability, T/C (second compound 0.1 µM, first compound 0.00949 µM) of the same compound?
Answer: The viability, T/C was 83.3%.

Question: And the viability, T/C (second compound 0.1 µM, first compound 0.03 µM)?
Answer: The viability, T/C was 68.2%.

Question: What about the viability, T/C (second compound 0.1 µM, first compound 0.0949 µM) of the same compound?
Answer: Its viability, T/C is 61.1%.

Question: What about the viability, T/C (second compound 0.1 µM, first compound 0.3 µM) of the same compound?
Answer: Its viability, T/C is 84.2%.

Question: What about the viability, T/C (second compound 0.1 µM, first compound 0.949 µM) of the same compound?
Answer: Its viability, T/C is 67.9%.

Question: And the viability, T/C (second compound 0.1 µM, first compound 3 µM)?
Answer: Its viability, T/C is 78.8%.

Question: What about the viability, T/C (second compound 0.316 µM, first compound 0.00949 µM) of the same compound?
Answer: Its viability, T/C is 102%.

Question: And the viability, T/C (second compound 0.316 µM, first compound 0.03 µM)?
Answer: Its viability, T/C is 68.1%.

Question: And the viability, T/C (second compound 0.316 µM, first compound 0.0949 µM)?
Answer: The viability, T/C was 74%.

Question: And the viability, T/C (second compound 0.316 µM, first compound 0.3 µM)?
Answer: The viability, T/C was 68.6%.

Question: What about the viability, T/C (second compound 0.316 µM, first compound 0.949 µM) of the same compound?
Answer: The viability, T/C was 60.2%.

Question: What about the viability, T/C (second compound 0.316 µM, first compound 3 µM) of the same compound?
Answer: The viability, T/C was 50.1%.

Question: And the viability, T/C (second compound 1 µM, first compound 0.00949 µM)?
Answer: Its viability, T/C is 68.2%.

Question: What about the viability, T/C (second compound 1 µM, first compound 0.03 µM) of the same compound?
Answer: The viability, T/C was 68.8%.

Question: What about the viability, T/C (second compound 1 µM, first compound 0.0949 µM) of the same compound?
Answer: Its viability, T/C is 66.3%.

Question: What about the viability, T/C (second compound 1 µM, first compound 0.3 µM) of the same compound?
Answer: Its viability, T/C is 59.1%.

Question: What about the viability, T/C (second compound 1 µM, first compound 0.949 µM) of the same compound?
Answer: The viability, T/C was 46%.

Question: What about the viability, T/C (second compound 1 µM, first compound 3 µM) of the same compound?
Answer: The viability, T/C was 29.5%.
